Test [1] has as its system Hep3B human hepatic carcinoma cell line. Nature of the test: In vitro antitumor activity assay (SRB), Hep3B. It is filed as cell-based. The conditions noted are these: 72 h, Table 3. The source says: (§1) HeLa human cervical carcinoma cell line, A-549 human non-small cell lung carcinoma cell line, NCI-H2228 human lung carcinoma cell line, NCI-H460 human lung carcinoma cell line, MDA-MB-231 human breast carcinoma cell line, MCF-7 human breast carcinoma cell line, Bel-7402 human hepatic carcinoma cell line, Hep3B human hepatic carcinoma cell line, QGY-7703 human hepatic carcinoma cell line, MV-4-11 human leukemic cell line, DAUDI human leukemic cell line, Jurkat human leukemic cell line, A498 renal carcinoma cell line, LoVo human colon carcinoma cell line, HCT1116 human colon carcinoma cell line, A431 human skin carcinoma cell line, PANC-1 human pancreatic carcinoma cell line, U87-MG human brain carcinoma cell line, SH-SY5Y human brain carcinoma cell line, RPMI-8226 human bone carcinoma cell line, HT1080 human fibrosarcoma cell line, PC-3 human prostatic carcinoma cell line, AGS human gastric adenocarcinoma cell line, and BGC-823 human gastric adenocarcinoma cell line were purchased from the Cell Bank of the Chinese Academy of Sciences.
(§2) The positive control is bufalin (formulated according to the common method), its purity is 98% or more by HPLC-UV and its structure is identified by NMR. The compounds to be tested and the positive control were diluted with normal saline with a concentration gradient of 10^−4 M, 10^−5 M, 10^−6 M, 10^−7 M and 10^−8 M.
(§3) According to cell growth rate, tumor cells in the log phase of growth were seeded into 96-well culture plates at 100 μL per well, and allowed to attach for 24 hours, followed by addition of a test compound or positive control at 10 μL per well. For each concentration, the test was carried out in triplicate wells. […] Finally, Tris solution was added at 150 μL per well, and the absorbance (A) was measured at a wavelength of 515 nm using a microplate reader. The growth inhibition on tumor cell proliferation was calculated according to the following equation:
(§4) Growth Inhibition (%)=[(Absorbance of negative control−Absorbance of blank)−(Absorbance of sample−Absorbance of blank)]/(Absorbance of negative control−Absorbance of blank)×100% […]

In test [2] the test system is MV-4-11 human leukemic cell line. Nature of the test: In vitro antitumor activity assay (SRB), MV-4-11. It is filed as cell-based. To be noted: MV-4-11, 72 h, Table 3.
Text: as §1, §2, §3, §4

Test [3] deals with PANC-1 human pancreatic carcinoma cell line. The test is described as follows: In vitro antitumor activity assay (SRB), PANC-1. To be noted: PANC-1, 72 h, Table 3. It is filed as cell-based.
Text: as §1, §2, §3, §4

The subject of test [4] is human non-small cell lung carcinoma A549 xenograft. The test is described as follows: In vivo therapeutic effect against A549 xenograft in nude mice. To be noted: for inhibition of growth of human lung carcinoma A549 xenograft, in words: A549 xenograft in nude mice, bufalin at 1.6 mg/kg; for Inhibition Rate (%) / Tumor Weight(g) Mean ± SE: A549 xenograft, after 21 days. Here is the method:
This experiment is to evaluate the in vivo therapeutic effects of compounds bufalin, II1D-06.HCl, II1E-01.HCl and II1B-02.HCl against human-derived lung carcinoma A549 cell xenograft in nude mice.
Solvent control: 4% DMSO & 2% Tween-80 & 5% PEG-400 solution in normal saline
Compounds to be tested: bufalin, II1B-02.HCl, II1E-01.HCl, II1D-06.HCl
Formulating method: the compound was dissolved with DMSO into a stock solution, which was then diluted into an injection with a final DMSO concentration of 4%.
Positive control: Rapamycin Formulating method: it was formulated into an injection with a final DMSO concentration of 4%.
After the tumor size reaches about 200 mm^3, the mice bearing the tumor were grouped randomly into 8 groups according to the tumor size, including the groups of solvent control, positive control rapamycin 5 mg/kg, II1E-01.HCl 2 mg/kg, II1E-01.HCl 4 mg/kg, II1E-01.HCl 6 mg/kg, II1B-02.HCl 4 mg/kg, II1D-06.HCl 4 mg/kg, bufalin 1.6 mg/kg, wherein the dosage selection is based on that the maximum tolerable dosage is 1.6 mg/kg for bufalin and 6 mg/kg for II1E-01.HCl. Rapamycin was administered intravenously once a week (QW) and the other groups were administered intraperitoneally once every other day (QOD). The tumor was weighted after 21 days to calculate the inhibition rate. The equation for calculating inhibition rate (IR) is IR=(WC−WT)/WC×100%, wherein, WC represents the tumor weight of the control group, and WT represents the tumor weight of the treating group.
(Xenograft models place foreign cells or tissue in a host animal.)

The test system of test [5] is RPMI-8226 human bone carcinoma cell line. The test is described as follows: In vitro antitumor activity assay (SRB), RPMI8226. The class given is cell-based. The conditions noted are these: RPMI8226, 72 h, Table 3.
Text: as §1, §2, §3, §4

The subject of test [6] is A-549 human non-small cell lung carcinoma cell line. Nature of the test: In vitro antitumor activity assay (SRB), A549. It is filed as cell-based.
Text: as §1, §2
According to cell growth rate, tumor cells in the log phase of growth were seeded into 96-well culture plates at 100 μL per well, and allowed to attach for 24 hours, followed by addition of a test compound or positive control at 10 μL per well. For each concentration, the test was carried out in triplicate wells. Solvent control wells with addition of normal saline into cell culture and a blank well containing only cell culture medium but without cells for zeroing were also included. The tumor cells were incubated for 72 hours at 37° C. under 5% CO2, and then the culture medium (RPMI-1640) was removed. The cells were fixed with 10% cool TCA by incubating for 1 h at 4° C., washed with distilled water for 5 times, and dried naturally in the air. A solution of SRB (Sigma) (4 mg/mL) in 1% glacial acetic acid was added at 100 μL per well, and the cells were stained for 15 minutes at room temperature, and the supernatant was discarded. The plates were washed for 5 times with 1% acetic acid, and dried in air. Finally, Tris solution was added at 150 μL per well, and the absorbance (A) was measured at a wavelength of 515 nm using a microplate reader. The growth inhibition on tumor cell proliferation was calculated according to the following equation:
Growth Inhibition (%)=[(Absorbance of negative control−Absorbance of blank)−(Absorbance of sample−Absorbance of blank)]/(Absorbance of negative control−Absorbance of blank)×100%
Drug concentration: 10 μM, 1 μM, 0.1 μM, 10 nM, 1 nM, 0.1 nM.
IC50 was fitted by GraphPad Prism 4.

Test [7] relates to HCT-116 human-derived tumor cell line. The test is described as follows: In vitro antitumor activity assay (SRB), HCT-116. It is filed as cell-based. To be noted: HCT-116, 72 h, Table 3.
Text: as §1, §2, §3, §4

The subject of test [8] is BGC-823 human gastric adenocarcinoma cell line. The test is described as follows: In vitro antitumor activity assay (SRB), BGC-823. It is filed as cell-based. The conditions noted are these: BGC-823, 72 h, Table 3.
Text: as §1, §2, §3, §4

Test [9] has as its system A431 human skin carcinoma cell line. The test is described as follows: In vitro antitumor activity assay (SRB), A431. To be noted: A431, 72 h, Table 3. The class given is cell-based.
Text: as §1, §2, §3, §4

Read-outs that look alike come from different tables or passages of the source. Some results are limits rather than exact numbers.

On to `C[C@]12CC[C@H](OC(=O)NC3CCNCC3)C[C@H]1CC[C@@H]1[C@@H]2CC[C@]2(C)[C@@H](c3ccc(=O)oc3)CC[C@]12O.Cl` [II1E-01•HCl], for which the IC50 in test [1] was > 1000 nM; in test [2], 0.64 ± 0.11 nM; in test [3], 0.57 ± 0.06 nM; in test [5], 1.71 ± 0.03 nM; in test [6] (A549, 72 h, Table 3, read-out: IC50 (72 h), A549), 0.4 ± 0.22 nM; in test [7] it was 2.13 ± 0.28 nM. The IC50 amounted to 0.56 ± 0.07 nM in test [8] and 3.31 ± 0.09 nM in [9]. Also, the “inhibition of growth of human lung carcinoma A549 xenograft, in words” value in test [4] is “significantly inhibit the growth”. Moreover, the “Inhibition Rate (%)” value was 32.43% in [4] (2 mg/kg ip QOD), 70.57% in [4] (4 mg/kg ip QOD) and 87.70% in test [4] (6 mg/kg ip QOD). The entries for the “Tumor Weight(g) Mean ± SE” value in test [4] (2 mg/kg ip QOD), in [4] (4 mg/kg ip QOD) and in [4] (6 mg/kg ip QOD) were 1.1375 ± 0.1044 g, 0.4953 ± 0.0301 g and 0.2070 ± 0.0193 g, respectively.
For the molecule `C[C@]12CC[C@H](O)C[C@H]1CC[C@@H]1[C@@H]2CC[C@]2(C)[C@@H](c3ccc(=O)oc3)CC[C@]12O` [bufalin, reference compound], the IC50 in test [1] (Homo sapiens) is > 1000 nM; in test [2] (Homo sapiens, MV4-11) it was 6.26 ± 2.22 nM; in test [3] (Homo sapiens) it was 9.88 ± 0.27 nM; in test [5] (Homo sapiens, RPMI-8226), 13.5 ± 0.82 nM; in test [6] (Homo sapiens, A549, 72 h, Table 3, read-out: IC50 (72 h), A549) it was 8.74 ± 2.52 nM; in test [6] (Homo sapiens, A549, Table 2, read-out: IC50, inhibition of cell proliferation, A549), 6.53 ± 1.64 nM. In addition, the IC50 in [7] (Homo sapiens) worked out at 9.69 ± 0.64 nM; in test [8] (Homo sapiens), 9.06 ± 0.37 nM; in [9] (Homo sapiens, A-431), 26.6 ± 5.35 nM. Also, in [4], the “inhibition of growth of human lung carcinoma A549 xenograft, in words” value was “did not express strong inhibitory activity”. In addition, in test [4] (1.6 mg/kg ip QOD), the “Inhibition Rate (%)” value was 8.99%. For the same molecule, in test [4] (1.6 mg/kg ip QOD), the “Tumor Weight(g) Mean ± SE” value stood at 1.5320 ± 0.0624 g.

For the origin of these results see patent US20130005696A1, “BUFADIENOLIDE DERIVATIVES, PREPARING PROCESS THEREOF, COMPOSITION COMPRISING THE SAME AND THE USE THEREOF” (priority 2011, published 2013).
